The source of these data is patent publication US7339042B2, “Gene delivery to tumors” (University of Florida Research Foundation, Inc., priority 2003, dated 2008).

In experiment [1] the test system is endothelial cells and smooth muscle cells of rat cerebral arteries. The experiment in a line: Uptake of fluorescent peptides by pressure-mounted rat cerebral arteries. Type of experiment: cell-based. To be noted: extraluminal addition.
Another experiment has as its system rat cerebral arteries. Description: Vasodilation and vasoconstriction response of rat cerebral arteries before and after peptide. To be noted: after vs before intraluminal peptide. The class given is cell-based. As to the method:
The blood vessels were put in culture described above and perfused with buffer of the same composition as cerebrospinal fluid. Vessel diameter was measured before and after administration of each reagent. 3 μM of each peptide was perfused through for 10 minutes followed by a 10 minute wash through. Vasoconstriction and vasodilation were determined for each vessel before peptide was applied. Perfusion was continued until the vessels relaxed to their original diamter (approximately 30 minutes). The vasoconstriction and vasodilation reponse was remeasured after the 10 minute wash through. The 60 mM KCl and 16 mM KCl conditions are […], respectively. Histamine and Bradykinin are endothelial cell vasodilators.
In some experiments, the arterial segments were denuded of endothelium by passing an air bubble through the lumen, thus exposing the smooth muscle cells to luminally administered peptides. Constriction to pressure and 60 mM KCl and dilation of arteries with myogenic tone to 16 mM KCl were used as benchmarks of functional arteries. Peptide containing PCSF was perfused intraluminally at an inlet pressure of 70 mmHg with the outlet open, for 20 min and then perfused with normal PCSF. This procedure ensures a 20 min of exposure of the arteries to the peptide.
Effect of peptide on endothelial and smooth muscle function was evaluated by histamine (0.3 and 1 μM) and bradykinin (0.5 μM) (endothelium-dependent vasodilators) and 16 and 60 mM KCl (results in dilation and constriction of arteries by hyperpolarizing and depolarizing smooth muscle, respectively). These drug solutions were added to the superfusate and applied to the arteries extraluminally for 10 to 15 min before and after intraluminal perfusion with peptides. Effects of these agents were expressed as percent change in myogenic tone (decrease for dilators and increase for constrictors). Experiments were concluded by exposing the arteries to calcium free PCSF to obtain the passive diameter. Cell viability was determined by adding H3334 (Hoechst viability stain, final concentration 1 μM) and propidium iodide (final concentration 1 μM) to the arteriograph after the peptide incubation. Fluorescent micrographs were taken of the vessels after incubation with peptides and following addition of the vital stains using Till Photonics imaging system (Martinsried, Germany).

The subject of a further experiment is RG2 cells. Description: Kinetic uptake studies of fluorescent peptides. The class given is cell-based, rat. As to the method: A172 cells, T98G cells and RG2 cells were purchased from ATCC. Cells were cultured under standard conditions. For cell uptake studies, each cell type was plated in 6 well plates at 5×10^5 cells per well 24 hours before the experiment. Increasing concentration of fluorescent peptides from 0.5 μM to 10 μM was prepared in complete medium. Cells were incubated with each concentration for 5, 10, 20 and 30 minutes at 37° C. followed by removal and washing of cells with 4° C. PBS 3×. Cells were solubilized in 0.2 ml 1% TX-100, PBS, pH 7.4. Fluorescence was measured using a fluorescent plate reader. Concentrations were determined by standard curve and normalized to μg of cellular protein.
A172, T98G and RG2 cells were plated in 6 well plates and incubated with 1, 2.5, 5 and 10 uM fluorescein labeled peptides for 5, 15, 30 and 60 minutes. Cells were washed 3× with PBS, removed from the plates with trypsin, centrifuged for 2 minutes at 2K rpm in a desk top centrifuge, supernatants discarded and the cell pellets were solubilized in 1% TX-100, PBS, pH 7.4. Fluorescence was measured in a Perkin Elmer fluorimeter using ˜ex=480 nm and ˜em=520 nm with a 510 nm cut off filter. Amount of cell-associated protein was determined from the standard curve.
This peptide was further characterized with regard to dose response. […]

In experiment [2] the test system is two human glioblastoma cell lines and a rat glioma cell line. The experiment in a line: Fluorescein peptide uptake, fluorescence microscopy, three glioma lines. To be noted: 1 μM peptide, 10^6 cells, all three cell types. The class given is cell-based. The protocol: Synthetic peptides labeled with an N-terminal fluorescein were synthesized to test the ability of a shuttle domain to enter brain tumor and endothelial cells. The amino acid sequences for the shuttle domain was derived from HIV Tat amino acid 47 to 56 ([…] SEQ ID NO:23)(Robert-Guroff et al., J. Virol. 64:3391-3398, 1990) to which AGGG was added to the N-terminus, and the antennapedia homeodomain from drosophila (ANT) ([…] SEQ ID NO:24) (Astriab-Fisher et al., Pharm. Res., 19:744-754, 2002). A synthetic peptide (PTD-5) reported to have similar properties as Tat and ANT was also tested (Mai J. C. et al, Cancer Res. 2001; 61: 7709-7712.). Uptake was tested in two human glioblastoma cell lines and a rat glioma cell line, the latter being used for the rat brain tumor model. A 1 μM concentration of each peptide was added to 10^6 cells in a 6 well plate. […] The Tat and ANT peptides were doubled in length by the addition of […] (SEQ ID NO: 25), amino acids 42 to 55 from a human cyclin-dependent kinase inhibitor 2A (melanoma, p16, inhibits CDK4) (CDKI), transcript variant 4, mRNA (accession no. NM_058195). This domain binds MDM2 and inhibit ubiquination of P53, a tumor suppressor protein. […] Only the combination of Tat-CDKI was toxic to the cells, 65% killing for T98G and 61% killing for RG2 cells. […] Similar results were obtained with A172 cells. […]

For the next experiment, the system named is A172 cells. The experiment in a line: Fluorescein peptide uptake by A172 cells, fluorescence microscopy. The class given is cell-based, human. The note with it: 30 uM peptide, 1 hr, 37° C., serum containing media. As to the method:
For fluorescent microscopy studies cells were plated on 2 chamber cover slips at a density of 1×10^4 cells/chamber. Cells were incubated with […] peptide for 30 minutes in completed media, washed with PBS 3× and imaged using a Nikon Axiophot inverted fluorescent microscope. Images were taken using a Spot CCD camera.
Synthetic peptides derived from HIV Tat (Tat) and the Drosophila antennaepedia homeodomain (ANT) were tested for cell uptake by A172 cells (human glioblastomas). The peptides were labeled at the N-terminus with fluorescein. Cells were incubated with 30 uM peptide at 37° C. in serum containing media. Fluorescent micrographs were taken after 1 hr incubation at 37° C. […] The size of the peptide was increased by added an Mdm-2 binding domain derived from P14ARF. This domain was added to the C-terminus of the Tat and ANT peptides. The P14ARF domain was also placed at the N-terminus followed by the Tat peptide. All the peptides were labeled at the N-terminus with fluorescein and cell incubations similar to the Tat and ANT peptides were tested for cellular uptake. […] Both the bright field and fluorescent micrographs show altered cell morphology.

On to `C[C@H](N)C(=O)NCC(=O)NCC(=O)NCC(=O)N[C@@H](Cc1ccc(O)cc1)C(=O)NCC(=O)N[C@@H](CCCNC(=N)N)C(=O)N[C@@H](CCCCN)C(=O)N[C@@H](CCCCN)C(=O)N[C@@H](CCCNC(=N)N)C(=O)N[C@@H](CCCNC(=N)N)C(=O)N[C@@H](CCC(N)=O)C(=O)N[C@@H](CCCNC(=N)N)C(=O)N[C@@H](CCCNC(=N)N)C(=O)N[C@@H](CCCNC(=N)N)C(=O)O` [Tat], for which the “labeling of smooth muscle cells” value in experiment [1] is “able to label the smooth muscle cells”. In the experiment on rat cerebral arteries, the “endothelium-dependent dilation to histamine and bradykinin” value is “responsive to all stimuli”; the “smooth muscle response to 60 and 16 mM KCl” value is given as “responsive to all stimuli”. Moreover, the uptake rate result in the experiment on RG2 cells is reported as “more rapid uptake than TatP14ARF”. Moreover, the “fluorescence labeling of cells (uptake)” value in experiment [2] was “preferentially labeled the cell nuclei”. Moreover, the “staining pattern (cell uptake)” value with A172 cells is given as “intracellular punctate”.
